The source of these data is PMC7181277, “Synthesis and Biological Evaluation of New Antitubulin Agents Containing 2-(3′,4′,5′-trimethoxyanilino)-3,6-disubstituted-4,5,6,7-tetrahydrothieno[2,3-c]pyridine Scaffold” (Molecules, 2020).

Data set [1] deals with murine leukemia (L1210) cells. The data set is described as follows: In vitro antiproliferative assay, L1210 cells. Format: cell-based. The settings on record: Mus musculus. The text has this: In Table 1 we report the in vitro antiproliferative activity of 2-(3′,4′,5′-trimethoxyanilino)-4,5,6,7-tetrahydrothieno[2,3-c]pyridine derivatives 3a–3j and the related 4,5,6,7-tetrahydrobenzo[b]thiophenes 3k–3p against a panel of three cell lines, which were derived from different cancer types, including murine leukemia (L1210), human T-lymphoblastoid leukemia (CEM), and human cervix carcinoma (HeLa) cells.
(§1) Murine leukemia L1210, human T-lymphocyte leukemia CEM, human cervix carcinoma (HeLa), and human chronic myelogenous leukemia K562 cells (3–5 × 10^4 cells) and a serial (5-fold) dilution of the test compounds were added to a 96-well microtiter plate. The cells were incubated for 72 h at 37 °C in a humidified 5% CO2 atmosphere. At the end of the incubation period, the cells were counted in a Coulter Counter (Coulter Electronics Ltd., Harpenden Herts, United Kingdom). The IC50 (50% inhibitory concentration) was defined as the concentration of compound that inhibited cell proliferation by 50%. The IC50 values represent the average (± standard deviation) of three independent experiments. Human peripheral blood mononuclear cells (PBMC) were obtained from healthy donors by centrifugation with Ficoll-Paque Plus (GE Healthcare Bio-Sciences AB, Uppsala).

The test system of data set [2] is human T-lymphoblastoid leukemia (CEM) cells. As to the kind of experiment: In vitro antiproliferative assay, CEM cells. Format: cell-based. The settings on record: CCRF-CEM; human T-lymphocyte CEM, 72 h, cell count; mean ± SE. As to the method:
as §1, with “The IC50 (50% inhibitory concentration) was defined as the concentration of compound that inhibited cell proliferation by 50%.” left out

Data set [3] deals with human cervix carcinoma (HeLa) cells. As to the kind of experiment: In vitro antiproliferative assay, HeLa cells. Format: cell-based. As to conditions: human cervix carcinoma HeLa, 72 h, cell count; mean ± SE. As to the method:
as §1, with “The IC50 (50% inhibitory concentration) was defined as the concentration of compound that inhibited cell proliferation by 50%.” left out

The next data set relates to Bovine brain tubulin. The data set is described as follows: Inhibition of tubulin polymerization (turbidimetric assembly). The settings on record: tubulin at 10 μM, 20 min incubation; read-out: Tubulin assembly IC50 ± SD. Format: biochemical. On the procedure:
(§2) Bovine brain tubulin was purified as described previously. To evaluate the effect of the compounds on tubulin assembly in vitro [59], varying concentrations were preincubated with 10 μM tubulin in 0.8 M glutamate buffer at 30 °C and then cooled to 0 °C. After addition of GTP, the mixtures were transferred to 0 °C cuvettes in a recording spectrophotometer and warmed to 30 °C, and the assembly of tubulin was observed turbidimetrically. […] The ability of the test compounds to inhibit colchicine binding to tubulin was measured as described earlier, except that the reaction mixtures contained 1 μM tubulin, 5 μM of [^3H]colchicine, and test compounds 3a or 3b.

In data set [4] the test system is tubulin (colchicine site). As to the kind of experiment: Inhibition of [3H]colchicine binding to tubulin. More on the design: species or system Bovine. The settings on record: tubulin 1 μM, colchicine 5 μM, compound 5 μM. On the procedure: as §2
The mark [5] stands for this setting: murine leukemia L1210, 72 h, cell count, mean ± SE.

`COc1cc(Nc2sc3c(c2C#N)CCC(C)C3)cc(OC)c1OC` (centres unmarked) [Compound 3k, 6. -Methyl-2-((3,4,5-trimethoxyphenyl)amino)-4,5,6,7-tetrahydrobenzo[b]thiophene-3-carbonitrile]: the melting point – broadly, the temperature of the solid-liquid transition – fell in the range of 112 to 114 °C. Further, in data set [1] (setting [5]), the IC50 (as a rule, the concentration that gives 50% inhibition) was above 250 µM. Moreover, the IC50 in data set [2] was above 250 µM. This compound showed an IC50 in data set [3] of 202 ± 25 µM.
Compound `CCOC(=O)c1c(Nc2cc(OC)c(OC)c(OC)c2)sc2c1CCC(c1ccccc1)C2` (centres unmarked) [Compound 3p, Ethyl 6-phenyl-2-((3,4,5-trimethoxyphenyl)amino)-4,5,6,7-tetrahydrobenzo[b]thiophene-3-carboxylate] registered a melting point of 98 to 100 °C. In addition, in data set [1] (setting [5]), the IC50 came to 112 ± 1 µM. In data set [2], this compound yielded an IC50 of 88 ± 12 µM. Besides, the IC50 in data set [3] was found to be 169 ± 18 µM.
The corresponding values for `COC(=O)c1c(Nc2cc(OC)c(OC)c(OC)c2)sc2c1CCC(C)C2` (centres unmarked) [Compound 3m, Methyl 6-methyl-2-((3,4,5-trimethoxyphenyl)amino)-4,5,6,7-tetrahydrobenzo[b]thiophene-3-carboxylate] are 127 to 129 °C, 82 ± 13 µM, 45 ± 17 µM and 11 ± 6 µM.
In the same order, the values of `COC(=O)c1c(Nc2cc(OC)c(OC)c(OC)c2)sc2c1CCN(C(C)=O)C2` [Compound 3e, Methyl 6-acetyl-2-((3,4,5-trimethoxyphenyl)amino)-4,5,6,7-tetrahydrothieno[2,3-c]pyridine-3-carboxylate] are 90 to 91 °C, 26 ± 2 µM, 43 ± 12 µM and 48 ± 17 µM.
As for `COc1ccc(/C=C\c2cc(OC)c(OC)c(OC)c2)cc1O` [CA-4, combretastatin A-4, reference compound], the IC50 was 0.0028 ± 0.0011 µM in data set [1] (L1210, 72 h) and […] with Bovine brain tubulin. For the same compound, the “Colchicine binding % ± SD (inhibition of [3H]colchicine binding)” value in data set [4] turned out to be 98 ± 0.9%.
On to `CCOC(=O)c1c(Nc2cc(OC)c(OC)c(OC)c2)sc2c1CCN(C(=O)OCC)C2` [Compound 3g, Diethyl 2-((3,4,5-trimethoxyphenyl)amino)-4,5-dihydrothieno[2,3-c]pyridine-3,6(7H)-dicarboxylate], for which the melting point was in the range of 67 to 69 °C. Besides, half-maximal inhibition in data set [1] (setting [5]) (IC50) was put at 19 µM. This compound also returned an IC50 in data set [2] of 19 ± 1 µM. Also, the IC50 in data set [3] came out at 19 ± 4 µM.
The corresponding values for `CCOC(=O)N1CCc2c(sc(Nc3cc(OC)c(OC)c(OC)c3)c2C(=O)OC(C)(C)C)C1` [Compound 3j, 3-tert-butyl 6-ethyl 2-((3,4,5-trimethoxyphenyl)amino)-4,5-dihydrothieno[2,3-c]pyridine-3,6(7H)-dicarboxylate] are 60 to 62 °C, 19 ± 3 µM, 19 ± 2 µM and 20 ± 4 µM.
The corresponding values for `CCOC(=O)N1CCc2c(sc(Nc3cc(OC)c(OC)c(OC)c3)c2C(=O)OC)C1` [Compound 3d, 6-Ethyl 3-methyl 2-((3,4,5-trimethoxyphenyl)amino)-4,5-dihydrothieno[2,3-c]pyridine-3,6(7H)-dicarboxylate] are 76 to 78 °C, 15 ± 2 µM, 12 ± 4 µM and 16 ± 3 µM.
In the same order, the values of `COC(=O)c1c(Nc2cc(OC)c(OC)c(OC)c2)sc2c1CCN(C(=O)OC)C2` [Compound 3c, Dimethyl 2-((3,4,5-trimethoxyphenyl)amino)-4,5-dihydrothieno[2,3-c]pyridine-3,6(7H)-dicarboxylate] are 140 to 141 °C, 17 ± 5 µM, 16 ± 4 µM and 23 ± 10 µM.
The compound `COC(=O)c1c(Nc2cc(OC)c(OC)c(OC)c2)sc2c1CCC(c1ccccc1)C2` (centres unmarked) [Compound 3n, Methyl 6-phenyl-2-((3,4,5-trimethoxyphenyl)amino)-4,5,6,7-tetrahydrobenzo[b]thiophene-3-carboxylate] yielded a melting point of 147 to 148 °C. Moreover, it took 101 ± 9 µM to reach half-maximal inhibition in data set [1] (setting [5]) (IC50). Further, the midpoint of inhibition in data set [2], the IC50, lay at 102 ± 50 µM. Besides, the IC50 in data set [3] was 48 ± 6 µM.
In the case of `CCOC(=O)N1CCc2c(sc(NC(=O)c3cccs3)c2C#N)C1` [Compound 2b, reference compound], the IC50 was 6 ± 0.3 µM in data set [1] (setting [5]), 3.7 ± 1.2 µM in data set [2] and 41 ± 27 µM in data set [3].
Compound `CCOC(=O)c1c(Nc2cc(OC)c(OC)c(OC)c2)sc2c1CCC(C)C2` (centres unmarked) [Compound 3o, Ethyl 6-methyl-2-((3,4,5-trimethoxyphenyl)amino)-4,5,6,7-tetrahydrobenzo[b]thiophene-3-carboxylate] returned a melting point of 90 to 92 °C. This compound also displayed an IC50 in data set [1] (setting [5]) of 86 ± 41 µM. Moreover, the IC50 in data set [2] came out at 78 ± 33 µM. Moreover, the IC50 in data set [3] is 66 ± 6 µM.
In the same order, the values of `CCOC(=O)c1c(Nc2cc(OC)c(OC)c(OC)c2)sc2c1CCN(C(=O)OC)C2` [Compound 3f, 3-Ethyl 6-methyl 2-((3,4,5-trimethoxyphenyl)amino)-4,5-dihydrothieno[2,3-c]pyridine-3,6(7H)-dicarboxylate] are 128 to 130 °C, 22 ± 4 µM, 22 ± 8 µM and 67 ± 20 µM.
The corresponding values for `COC(=O)N1CCc2c(sc(Nc3cc(OC)c(OC)c(OC)c3)c2C(=O)OC(C)(C)C)C1` [Compound 3i, 3-tert-butyl 6-methyl 2-((3,4,5-trimethoxyphenyl)amino)-4,5-dihydrothieno[2,3-c]pyridine-3,6(7H)-dicarboxylate] are 50 to 52 °C, 18 ± 3 µM, 20 ± 2 µM and 14 ± 1 µM.
The corresponding values for `COc1cc(Nc2sc3c(c2C#N)CCC(c2ccccc2)C3)cc(OC)c1OC` (centres unmarked) [Compound 3l, 6. -Phenyl-2-((3,4,5-trimethoxyphenyl)amino)-4,5,6,7-tetrahydrobenzo[b]thiophene-3-carbonitrile] are 169 to 170 °C, 92 ± 29 µM, 58 ± 53 µM and 124 ± 8 µM.
As to `CCOC(=O)c1c(Nc2cc(OC)c(OC)c(OC)c2)sc2c1CCN(C(C)=O)C2` [Compound 3h, Ethyl 6-acetyl-2-((3,4,5-trimethoxyphenyl)amino)-4,5,6,7-tetrahydrothieno[2,3-c]pyridine-3-carboxylate], the melting point was in the range of 93 to 95 °C. In addition, the IC50 in data set [1] (setting [5]) was found to be 25 ± 3 µM. The IC50 in data set [2] is 34 ± 9 µM. The compound also displayed an IC50 in data set [3] of 24 ± 3 µM.
